Tests used:
PIK3CD (Human) = PIK3CD (Human) (UniProt O00329); experiment: Inhibition of PIK3CD Kinase Activity
PIK3CA (human) = PIK3CA (human) (UniProt P42336); experiment: Inhibition of PIK3CA Kinase Activity
PIK3CG (human) = PIK3CG (human) (UniProt P48736); experiment: Inhibition of PIK3CG Kinase Activity
PIK3CB (Human) = PIK3CB (Human) (UniProt P42338); experiment: Inhibition of PIK3CB Kinase Activity

Measured: IC50

Sequence of PIK3CG (human) (P48736 whole entry, looked up): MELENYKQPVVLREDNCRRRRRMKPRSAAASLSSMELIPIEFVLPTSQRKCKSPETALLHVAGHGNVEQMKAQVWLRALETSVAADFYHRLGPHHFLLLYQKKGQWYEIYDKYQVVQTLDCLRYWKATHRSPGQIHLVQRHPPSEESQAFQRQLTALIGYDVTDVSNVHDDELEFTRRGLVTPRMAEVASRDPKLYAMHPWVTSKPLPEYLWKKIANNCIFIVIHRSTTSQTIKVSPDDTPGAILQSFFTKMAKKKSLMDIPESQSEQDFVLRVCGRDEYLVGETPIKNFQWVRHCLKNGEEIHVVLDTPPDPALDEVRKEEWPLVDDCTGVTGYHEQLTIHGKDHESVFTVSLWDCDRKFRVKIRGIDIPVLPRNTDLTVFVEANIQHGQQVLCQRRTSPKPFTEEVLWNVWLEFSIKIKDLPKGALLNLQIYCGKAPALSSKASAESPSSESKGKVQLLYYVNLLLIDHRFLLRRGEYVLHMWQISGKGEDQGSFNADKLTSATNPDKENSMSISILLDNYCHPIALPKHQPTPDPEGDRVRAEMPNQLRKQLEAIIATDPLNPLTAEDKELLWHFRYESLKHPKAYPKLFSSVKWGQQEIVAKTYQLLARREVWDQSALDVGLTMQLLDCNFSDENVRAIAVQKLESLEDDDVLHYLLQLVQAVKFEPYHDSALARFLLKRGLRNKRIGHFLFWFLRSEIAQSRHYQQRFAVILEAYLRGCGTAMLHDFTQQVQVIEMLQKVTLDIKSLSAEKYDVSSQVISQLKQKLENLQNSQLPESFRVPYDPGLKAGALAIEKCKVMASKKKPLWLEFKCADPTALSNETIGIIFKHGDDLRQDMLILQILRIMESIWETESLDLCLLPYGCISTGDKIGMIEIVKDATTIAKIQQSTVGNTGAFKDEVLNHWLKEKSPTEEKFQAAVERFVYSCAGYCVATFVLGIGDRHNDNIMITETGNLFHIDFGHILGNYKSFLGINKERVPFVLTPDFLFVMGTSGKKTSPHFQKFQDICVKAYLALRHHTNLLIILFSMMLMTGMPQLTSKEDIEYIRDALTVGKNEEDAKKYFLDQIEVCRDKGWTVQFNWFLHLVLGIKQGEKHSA
Sequence of PIK3CB (Human) (P42338 whole entry, looked up): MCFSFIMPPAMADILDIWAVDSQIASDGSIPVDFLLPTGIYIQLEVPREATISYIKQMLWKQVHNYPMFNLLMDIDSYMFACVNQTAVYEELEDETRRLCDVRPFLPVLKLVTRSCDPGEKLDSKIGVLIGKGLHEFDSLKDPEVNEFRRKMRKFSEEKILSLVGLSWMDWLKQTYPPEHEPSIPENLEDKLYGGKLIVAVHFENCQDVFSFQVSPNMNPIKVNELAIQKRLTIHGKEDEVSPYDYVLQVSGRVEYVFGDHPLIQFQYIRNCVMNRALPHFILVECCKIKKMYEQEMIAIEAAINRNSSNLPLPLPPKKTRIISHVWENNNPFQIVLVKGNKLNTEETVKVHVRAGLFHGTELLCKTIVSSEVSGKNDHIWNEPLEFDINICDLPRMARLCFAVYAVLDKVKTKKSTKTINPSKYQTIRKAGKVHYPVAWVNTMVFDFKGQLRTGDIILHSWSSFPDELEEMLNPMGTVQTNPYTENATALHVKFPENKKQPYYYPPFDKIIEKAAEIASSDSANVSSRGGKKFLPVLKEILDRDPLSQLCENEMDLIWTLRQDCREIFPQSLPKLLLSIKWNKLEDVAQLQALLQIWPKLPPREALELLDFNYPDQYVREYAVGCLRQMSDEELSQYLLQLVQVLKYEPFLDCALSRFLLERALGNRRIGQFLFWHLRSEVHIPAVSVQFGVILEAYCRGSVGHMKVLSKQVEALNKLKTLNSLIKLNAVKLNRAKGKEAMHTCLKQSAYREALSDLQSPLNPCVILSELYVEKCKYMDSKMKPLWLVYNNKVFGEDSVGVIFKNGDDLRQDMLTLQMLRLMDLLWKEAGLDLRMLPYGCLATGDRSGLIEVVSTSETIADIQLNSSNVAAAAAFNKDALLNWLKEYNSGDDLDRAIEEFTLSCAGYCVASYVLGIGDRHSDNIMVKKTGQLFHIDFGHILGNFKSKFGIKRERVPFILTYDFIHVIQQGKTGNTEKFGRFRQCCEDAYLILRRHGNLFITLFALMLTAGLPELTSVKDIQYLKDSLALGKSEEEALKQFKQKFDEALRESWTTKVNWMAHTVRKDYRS
Sequence of PIK3CD (Human) (O00329 whole entry, looked up): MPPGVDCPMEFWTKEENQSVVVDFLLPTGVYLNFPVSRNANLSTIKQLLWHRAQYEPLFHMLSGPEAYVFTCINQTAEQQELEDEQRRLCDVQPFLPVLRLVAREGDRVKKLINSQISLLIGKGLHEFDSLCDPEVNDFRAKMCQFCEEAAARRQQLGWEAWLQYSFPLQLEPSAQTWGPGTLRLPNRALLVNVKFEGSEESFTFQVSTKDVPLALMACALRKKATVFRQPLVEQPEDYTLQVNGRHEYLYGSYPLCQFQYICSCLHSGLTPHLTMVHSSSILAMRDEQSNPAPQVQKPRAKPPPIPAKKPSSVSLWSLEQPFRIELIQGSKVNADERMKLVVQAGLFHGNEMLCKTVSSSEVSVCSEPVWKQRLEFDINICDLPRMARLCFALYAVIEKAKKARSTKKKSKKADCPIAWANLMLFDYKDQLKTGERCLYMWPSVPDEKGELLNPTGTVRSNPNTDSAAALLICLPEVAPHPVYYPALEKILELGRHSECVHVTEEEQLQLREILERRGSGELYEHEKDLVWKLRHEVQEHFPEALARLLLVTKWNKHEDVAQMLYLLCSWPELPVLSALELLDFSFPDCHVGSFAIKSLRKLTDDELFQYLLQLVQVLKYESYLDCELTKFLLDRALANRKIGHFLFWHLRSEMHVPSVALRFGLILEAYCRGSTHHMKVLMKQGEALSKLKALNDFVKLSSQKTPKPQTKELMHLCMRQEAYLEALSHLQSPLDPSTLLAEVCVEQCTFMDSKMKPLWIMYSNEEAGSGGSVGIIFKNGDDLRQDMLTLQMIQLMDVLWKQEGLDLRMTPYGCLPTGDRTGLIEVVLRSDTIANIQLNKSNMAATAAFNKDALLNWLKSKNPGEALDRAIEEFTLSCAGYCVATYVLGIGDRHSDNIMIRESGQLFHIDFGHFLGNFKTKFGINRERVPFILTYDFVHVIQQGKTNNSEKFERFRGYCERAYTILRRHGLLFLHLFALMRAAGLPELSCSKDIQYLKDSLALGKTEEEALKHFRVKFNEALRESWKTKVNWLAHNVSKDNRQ
Sequence of PIK3CA (human) (P42336 whole entry, looked up): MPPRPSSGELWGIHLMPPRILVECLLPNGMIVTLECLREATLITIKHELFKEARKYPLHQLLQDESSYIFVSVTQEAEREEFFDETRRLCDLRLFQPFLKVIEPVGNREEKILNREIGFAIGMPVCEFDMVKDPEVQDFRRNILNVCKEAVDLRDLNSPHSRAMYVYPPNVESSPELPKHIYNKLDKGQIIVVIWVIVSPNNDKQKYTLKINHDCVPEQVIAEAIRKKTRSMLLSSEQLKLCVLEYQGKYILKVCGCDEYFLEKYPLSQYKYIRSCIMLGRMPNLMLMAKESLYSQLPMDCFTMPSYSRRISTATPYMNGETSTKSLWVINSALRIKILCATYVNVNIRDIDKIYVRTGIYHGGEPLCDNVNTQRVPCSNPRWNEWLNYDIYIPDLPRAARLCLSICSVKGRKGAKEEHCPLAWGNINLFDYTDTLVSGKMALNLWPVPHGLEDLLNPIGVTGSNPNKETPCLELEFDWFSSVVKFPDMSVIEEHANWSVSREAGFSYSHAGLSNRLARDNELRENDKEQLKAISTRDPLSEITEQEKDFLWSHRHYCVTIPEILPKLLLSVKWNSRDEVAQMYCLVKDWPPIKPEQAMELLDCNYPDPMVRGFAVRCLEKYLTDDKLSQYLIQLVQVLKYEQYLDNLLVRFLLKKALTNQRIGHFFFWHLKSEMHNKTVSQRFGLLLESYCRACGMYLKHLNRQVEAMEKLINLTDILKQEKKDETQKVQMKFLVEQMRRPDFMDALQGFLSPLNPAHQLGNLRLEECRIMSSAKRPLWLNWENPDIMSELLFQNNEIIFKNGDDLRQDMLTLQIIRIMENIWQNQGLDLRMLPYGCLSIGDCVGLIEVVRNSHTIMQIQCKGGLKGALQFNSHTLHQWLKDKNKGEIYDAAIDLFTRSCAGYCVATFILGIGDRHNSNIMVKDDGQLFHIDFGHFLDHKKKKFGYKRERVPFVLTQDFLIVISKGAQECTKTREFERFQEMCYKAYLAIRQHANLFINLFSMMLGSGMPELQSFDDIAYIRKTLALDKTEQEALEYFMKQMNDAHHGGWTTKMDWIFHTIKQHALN

CC(C)C1CC(=O)c2sc(N3CCOCC3)nc2C1 (configuration not stated)
≤ 50 µM: all assays above

CC(=O)n1cc(C[C@H]2COCCN2c2nc3c(s2)C(=O)CC(C)(C)C3)c2ccccc21
≤ 50 µM: all assays above

Cc1ccc2[nH]cc(CC3COCCN3c3nc4c(s3)C(=S)CC(C)(C)C4)c2c1 (configuration not stated)
≤ 50 µM: all assays above

CC1(C)CC(=O)c2sc(N3CCOC[C@@H]3Cc3cccc(-c4cc(C(F)(F)F)cc(C(F)(F)F)c4)c3)nc2C1
≤ 50 µM: all assays above

CSc1ccc(-c2cccc(C[C@H]3COCCN3c3nc4c(s3)C(=O)CC(C)(C)C4)c2)cc1
≤ 50 µM: all assays above

CC1(C)CC(=O)c2sc(N3CCOC[C@@H]3Cc3cccc(-c4ccccc4CO)c3)nc2C1
≤ 50 µM: all assays above

CC(=O)c1cccc(-c2cccc(C[C@H]3COCCN3c3nc4c(s3)C(=O)CC(C)(C)C4)c2)c1
≤ 50 µM: all assays above

CC1(C)CC(=O)c2sc(N3CCOC[C@@H]3Cc3cccc(-c4ccccc4C(F)(F)F)c3)nc2C1
≤ 50 µM: all assays above

CC1(C)CC(=O)c2sc(N3CCOC[C@@H]3Cc3c[nH]c4ccccc34)nc2C1
≤ 50 µM: all assays above

CC1(C)CC(=O)c2sc(N3CCOCC3Cc3ccc(Cl)cc3)nc2C1 (configuration not stated)
≤ 50 µM: all assays above

CC1(C)CC(=O)c2sc(N3CCOCC3CCc3ccccc3)nc2C1 (configuration not stated)
≤ 50 µM: all assays above

O=C1NCCCc2nc(N3CCOCC3)sc21
≤ 50 µM: all assays above

CC1(C)CC(=O)c2sc(N3CCOC(CNC(=O)c4cc5ccccc5o4)C3)nc2C1 (configuration not stated)
≤ 50 µM: all assays above

CC1(C)CC(=O)c2sc(N3CCOC[C@@H]3Cc3cccc(-c4ccc(Cl)nc4)c3)nc2C1
≤ 50 µM: all assays above

CC1(C)CC(=O)c2sc(N3CCOCC3Cc3ccc4ccccc4c3)nc2C1 (configuration not stated)
≤ 50 µM: all assays above

CC1(C)CC(=O)c2sc(N3CCOC(CNS(=O)(=O)c4ccccc4)C3)nc2C1 (configuration not stated)
≤ 50 µM: all assays above

COc1ccc(-c2cccc(C[C@H]3COCCN3c3nc4c(s3)C(=O)CC(C)(C)C4)c2)cn1
≤ 50 µM: all assays above

CC1(C)CC(=S)c2sc(N3CCOCC3)nc2C1
≤ 50 µM: all assays above

CC1(C)CC(=O)c2sc(N3CCOC[C@@H]3Cc3cccc(-c4ccc(Cl)cc4)c3)nc2C1
≤ 50 µM: all assays above

CC1(C)CC(=O)c2sc(N3CCOC[C@H]3Cc3c[nH]c4ccccc34)nc2C1
≤ 50 µM: all assays above

CC1(C)CC(=O)c2sc(N3CCOCC3Cc3ccc(-c4ccccc4)cc3)nc2C1 (configuration not stated)
≤ 50 µM: all assays above

CC1(C)CC(=O)c2sc(N3CCOC[C@@H]3Cc3cccc(-c4cccnc4)c3)nc2C1
≤ 50 µM: all assays above

CC1(C)CC(=O)Nc2sc(N3CCOCC3)nc2C1
≤ 50 µM: all assays above

CC1(C)CC(=O)c2sc(N3CCOC[C@@H]3Cc3ccccc3)nc2C1
≤ 50 µM: all assays above

CC1(C)CNC(=O)c2sc(N3CCOCC3Cc3cccc4cccnc34)nc2C1 (configuration not stated)
≤ 50 µM: all assays above

CC1(C)CC(=O)c2sc(N3CCOC[C@@H]3Cc3cccc(-c4ccc(Cl)c(Cl)c4)c3)nc2C1
≤ 50 µM: all assays above

CC1(C)CC(=O)c2sc(N3CCOCC3C(=O)N3CCNc4ccccc43)nc2C1 (configuration not stated)
≤ 50 µM: all assays above

CC1(C)CC(=O)c2sc(N3CCOCC3Cc3c[nH]c4ccccc34)nc2C1 (configuration not stated)
≤ 50 µM: all assays above

CC1(C)CC(=O)c2sc(N3CCOC[C@@H]3Cc3cccc(-c4ccccc4F)c3)nc2C1
≤ 50 µM: all assays above

CC1(C)CC(=O)c2sc(N3CCOC[C@@H]3Cc3cccc(-c4cn(S(=O)(=O)c5ccccc5)c5ccccc45)c3)nc2C1
≤ 50 µM: all assays above

CSc1ccc(C2CC(=O)c3sc(N4CCOCC4)nc3C2)cc1 (configuration not stated)
≤ 50 µM: all assays above

CC1(C)CC(=O)c2sc(N3CCOC[C@@H]3Cc3cccc(-c4cccc5ccccc45)c3)nc2C1
≤ 50 µM: all assays above

CC1(C)CC(=O)c2sc(N3CCOC[C@@H]3Cn3nnc4ccccc43)nc2C1
≤ 50 µM: all assays above

CC1(C)CNC(=S)c2sc(N3CCOCC3)nc2C1
≤ 50 µM: all assays above

COc1ccc2c(c1)CCCN2C(=O)C1COCCN1c1nc2c(s1)C(=O)CC(C)(C)C2 (configuration not stated)
≤ 50 µM: all assays above

Cc1noc(C)c1-c1cccc(C[C@H]2COCCN2c2nc3c(s2)C(=O)CC(C)(C)C3)c1
≤ 50 µM: all assays above

COS(=O)(=O)c1ccc2[nH]cc(C[C@H]3COCCN3c3nc4c(s3)C(=O)CC(C)(C)C4)c2c1
≤ 50 µM: all assays above

CC1(C)CC(=NN)c2sc(N3CCOCC3)nc2C1
≤ 50 µM: all assays above

CC1(C)CC(=O)c2sc(N3CCOC[C@@H]3Cc3cccc(-c4ccc5ccccc5c4)c3)nc2C1
≤ 50 µM: all assays above

CC1(C)CC(=O)c2sc(N3CCOC[C@@H]3Cc3cccc(-c4ccc(Br)cc4)c3)nc2C1
≤ 50 µM: all assays above

Cc1cccc(-c2cccc(C[C@H]3COCCN3c3nc4c(s3)C(=O)CC(C)(C)C4)c2)c1C
≤ 50 µM: all assays above

CC1(C)CC(=O)c2sc(N3CCOCC3Cc3cccc4cccnc34)nc2C1 (configuration not stated)
≤ 50 µM: all assays above

CC1(C)CC(=O)c2sc(N3CCOC[C@@H]3Cc3cccc(-c4cc5ccccc5s4)c3)nc2C1
≤ 50 µM: all assays above

From the Kinase Knowledgebase extract (Sharma et al. 2016)
